The subject of assay [1] is Bacillus subtilis. Description: Antibacterial activity against Bacillus subtilis assessed as inhibition of bacterial growth incubated for 18 to 20 hrs by microbroth dilution method. The assay is classed as functional. The conditions noted are these: time 18-20 hrs.
The subject of assay [2] is Clostridioides difficile. Description: Antibacterial activity against Clostridium difficile assessed as inhibition of bacterial growth incubated for 18 to 20 hrs by microbroth dilution method. The assay is classed as functional. The conditions noted are these: time 18-20 hrs.
In assay [3] the test system is Staphylococcus aureus. Description: Antibacterial activity against Staphylococcus aureus assessed as inhibition of bacterial growth incubated for 18 to 20 hrs by microbroth dilution method. The note with it: time 18-20 hrs. In kind it is functional.
Assay [4] concerns Staphylococcus epidermidis. Description: Antibacterial activity against Staphylococcus epidermidis assessed as inhibition of bacterial growth incubated for 18 to 20 hrs by microbroth dilution method. The assay is classed as functional. The conditions noted are these: time 18-20 hrs.
In assay [5] the test system is Streptococcus pneumoniae. Briefly: Antibacterial activity against Streptococcus pneumoniae assessed as inhibition of bacterial growth incubated for 18 to 20 hrs by microbroth dilution method. In kind it is functional. The conditions noted are these: time 18-20 hrs.
The test system of assay [6] is Escherichia coli. Briefly: Antibacterial activity against Escherichia coli assessed as inhibition of bacterial growth incubated for 18 to 20 hrs by microbroth dilution method. The assay is classed as functional. The note with it: time 18-20 hrs.
Assay [7] deals with Klebsiella pneumoniae. Description: Antibacterial activity against Klebsiella pneumoniae assessed as inhibition of bacterial growth incubated for 18 to 20 hrs by microbroth dilution method. In kind it is functional. The note with it: time 18-20 hrs.
Assay [8] has as its system Pseudomonas aeruginosa. Briefly: Antibacterial activity against Pseudomonas aeruginosa assessed as inhibition of bacterial growth incubated for 18 to 20 hrs by microbroth dilution method. The assay is classed as functional. The note with it: time 18-20 hrs.
Assay [9] has as its system Salmonella typhimurium. Briefly: Antibacterial activity against Salmonella typhimurium assessed as inhibition of bacterial growth incubated for 18 to 20 hrs by microbroth dilution method. The assay is classed as functional, Salmonella enterica subsp. enterica serovar Typhimurium. The note with it: Salmonella enterica; time 18-20 hrs.
The target of assay [10] is DNA gyrase subunit B (Staphylococcus aureus, UniProt P0A0K8). Briefly: Inhibition of Staphylococcus aureus DNA gyrase subunit B ATPase activity using relaxed pNO1 plasmid as substrate incubated for 30 mins by microplate reader analysis.
Chain of DNA gyrase subunit B (P0A0K8 whole entry): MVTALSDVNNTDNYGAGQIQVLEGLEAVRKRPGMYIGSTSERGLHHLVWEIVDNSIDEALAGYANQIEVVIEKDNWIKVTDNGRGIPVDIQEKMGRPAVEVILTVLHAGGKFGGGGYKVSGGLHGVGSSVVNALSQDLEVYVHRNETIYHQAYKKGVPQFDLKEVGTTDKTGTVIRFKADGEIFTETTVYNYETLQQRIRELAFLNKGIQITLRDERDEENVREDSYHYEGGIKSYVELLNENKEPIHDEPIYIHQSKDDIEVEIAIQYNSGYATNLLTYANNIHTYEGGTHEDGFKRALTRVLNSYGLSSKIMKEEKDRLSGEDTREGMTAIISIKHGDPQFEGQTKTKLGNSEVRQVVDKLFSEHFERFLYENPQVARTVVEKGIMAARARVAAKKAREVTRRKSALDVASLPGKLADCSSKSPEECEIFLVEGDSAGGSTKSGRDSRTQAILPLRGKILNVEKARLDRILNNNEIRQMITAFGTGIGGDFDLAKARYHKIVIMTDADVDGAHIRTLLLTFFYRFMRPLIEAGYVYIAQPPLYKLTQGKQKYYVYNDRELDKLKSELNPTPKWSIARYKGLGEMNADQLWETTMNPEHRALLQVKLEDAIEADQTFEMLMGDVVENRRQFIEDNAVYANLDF
Assay [11] addresses DNA topoisomerase 4 subunit B (Staphylococcus aureus, UniProt P0C1S7). Briefly: Inhibition of Staphylococcus aureus DNA topoisomerase 4 subunit B ATPase activity using relaxed pNO1 plasmid as substrate incubated for 30 mins by microplate reader analysis.
Assay [12] deals with Dihydrofolate reductase (Staphylococcus aureus, UniProt P0A017). Briefly: Inhibition of Staphylococcus aureus dihydrofolate reductase using dihydrofolate as substrate in presence of NADPH by microplate reader analysis.
Chain of Dihydrofolate reductase (P0A017 whole entry): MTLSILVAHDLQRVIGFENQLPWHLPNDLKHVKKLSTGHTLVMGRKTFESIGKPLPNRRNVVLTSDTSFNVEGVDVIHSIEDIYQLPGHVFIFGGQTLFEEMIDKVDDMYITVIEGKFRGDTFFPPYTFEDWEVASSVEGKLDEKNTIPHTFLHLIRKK
For assay [13], the system named is Aspergillus niger. Briefly: Antifungal activity against Aspergillus niger assessed as inhibition of fungal growth incubated for 72 hrs by agar dilution method. In kind it is functional.
Assay [14] concerns Aspergillus flavus. Description: Antifungal activity against Aspergillus flavus assessed as inhibition of fungal growth incubated for 72 hrs by agar dilution method. In kind it is functional.
In assay [15] the test system is Candida albicans. Briefly: Antifungal activity against Candida albicans assessed as inhibition of fungal growth incubated for 72 hrs by agar dilution method. The assay is classed as functional.
The test system of assay [16] is Saccharomyces cerevisiae. Briefly: Antifungal activity against Saccharomyces cerevisiae assessed as inhibition of fungal growth incubated for 72 hrs by agar dilution method. In kind it is functional.
Assay [17] deals with Fusarium oxysporum. Briefly: Antifungal activity against Fusarium oxysporum assessed as inhibition of fungal growth incubated for 72 hrs by agar dilution method. In kind it is functional.
For assay [18], the system named is Mycobacterium tuberculosis. Briefly: Antitubercular activity against Mycobacterium tuberculosis H37Rv assessed as inhibition of bacterial growth incubated for 24 hrs by two-fold dilution method. The assay is classed as functional.
The subject of assay [19] is Staphylococcus aureus. Description: Antibacterial activity against Staphylococcus aureus assessed as inhibition of bacterial growth incubated for 16 to 18 hrs by serial dilution method. In kind it is functional. The note with it: time 16-18 hrs.
The subject of assay [20] is Escherichia coli. Description: Antibacterial activity against Escherichia coli assessed as inhibition of bacterial growth incubated for 16 to 18 hrs by serial dilution method. The note with it: time 16-18 hrs. The assay is classed as functional.
Assay [21] relates to Candida albicans. Description: Antifungal activity against Candida albicans assessed as inhibition of fungal growth incubated for 16 to 18 hrs by serial dilution method. In kind it is functional. The conditions noted are these: time 16-18 hrs.
Assay [22] has as its system Aspergillus flavus. Briefly: Antifungal activity against Aspergillus flavus assessed as inhibition of fungal growth incubated for 16 to 18 hrs by serial dilution method. In kind it is functional. The note with it: time 16-18 hrs.

Values after ≈ are worked out from the molar mass of the structure shown.

Eleven compounds from ChEMBL document CHEMBL5356994, “Synthesis, biological and molecular modelling for 1,3,4-thiadiazole sulfonyl thioureas: bacterial and fungal activity” (RSC Med Chem, 2023) can be followed below.

Chain of DNA topoisomerase 4 subunit B (P0C1S7 whole entry): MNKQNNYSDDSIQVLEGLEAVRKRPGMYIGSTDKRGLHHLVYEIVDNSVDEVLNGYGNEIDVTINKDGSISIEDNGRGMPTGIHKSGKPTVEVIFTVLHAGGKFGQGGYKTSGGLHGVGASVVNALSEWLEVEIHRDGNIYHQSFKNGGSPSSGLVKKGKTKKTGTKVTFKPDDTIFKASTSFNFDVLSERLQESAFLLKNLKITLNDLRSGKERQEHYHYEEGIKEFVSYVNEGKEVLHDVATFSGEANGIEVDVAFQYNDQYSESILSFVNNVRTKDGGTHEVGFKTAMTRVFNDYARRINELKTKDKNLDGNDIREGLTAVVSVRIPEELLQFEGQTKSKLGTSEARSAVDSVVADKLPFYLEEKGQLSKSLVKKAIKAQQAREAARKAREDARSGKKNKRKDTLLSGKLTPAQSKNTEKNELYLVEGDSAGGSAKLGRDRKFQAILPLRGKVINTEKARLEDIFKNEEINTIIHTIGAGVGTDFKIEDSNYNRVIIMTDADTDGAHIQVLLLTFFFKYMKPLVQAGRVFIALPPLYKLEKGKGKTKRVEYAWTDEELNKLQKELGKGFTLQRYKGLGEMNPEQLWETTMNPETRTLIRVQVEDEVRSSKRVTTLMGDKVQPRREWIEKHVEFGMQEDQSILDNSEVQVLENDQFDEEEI

On to `CCCCCc1nnc(NC(=S)NS(=O)(=O)c2ccc(C)cc2)s1`, for which the minimum inhibitory concentration (MIC) in assay [1] is 200 µg/mL (≈ 520 µM); in assay [2], 12.5 µg/mL (≈ 32.5 µM); in assay [3], 0.78 µg/mL (≈ 2.03 µM); in assay [4], 0.78 µg/mL (≈ 2.03 µM); in assay [5], 200 µg/mL (≈ 520 µM); in assay [6] it was 0.78 µg/mL (≈ 2.03 µM). Further, the MIC in assay [7] was determined as 1.56 µg/mL (≈ 4.06 µM); in assay [8], 0.78 µg/mL (≈ 2.03 µM); in assay [9], 100 µg/mL (≈ 260 µM); in [13] it was 3.12 µg/mL (≈ 8.13 µM); in [14] it was 12.5 µg/mL (≈ 32.5 µM); in [15], 200 µg/mL (≈ 520 µM). In addition, the MIC in assay [16] was 400 µg/mL (≈ 1040 µM); in [17], 1.56 µg/mL (≈ 4.06 µM). Also, the IC50 is 1220 nM in [10], 53800 nM in assay [11] and 230 nM in assay [12].
As for `Cc1ccc(S(=O)(=O)NC(=S)Nc2nnc(C(C)C)s2)cc1`, the MIC in assay [1] is 1.56 µg/mL (≈ 4.38 µM); in [2] it was 50 µg/mL (≈ 140 µM); in assay [3], 12.5 µg/mL (≈ 35.1 µM); in [4], 1.56 µg/mL (≈ 4.38 µM); in assay [5] it was 3.12 µg/mL (≈ 8.77 µM); in [6], 3.12 µg/mL (≈ 8.77 µM). Besides, the minimal inhibitory concentration (MIC) in assay [7] came to 3.12 µg/mL (≈ 8.77 µM); in [8] it was 12.5 µg/mL (≈ 35.1 µM); in assay [9], 6.25 µg/mL (≈ 17.5 µM); in assay [13] it was 6.25 µg/mL (≈ 17.5 µM); in assay [14], 200 µg/mL (≈ 561 µM); in [15], 6.25 µg/mL (≈ 17.5 µM). Moreover, the MIC turned out to be 100 µg/mL (≈ 281 µM) in assay [16] and 6.25 µg/mL (≈ 17.5 µM) in assay [17].
For `Cc1ccc(S(=O)(=O)NC(=S)Nc2nnc(CCC(C)C)s2)cc1`, the MIC in [1] is 100 µg/mL (≈ 260 µM); in assay [2], 1.56 µg/mL (≈ 4.06 µM); in assay [3] it was 1.56 µg/mL (≈ 4.06 µM); in assay [4], 6.25 µg/mL (≈ 16.3 µM); in assay [5], 50 µg/mL (≈ 130 µM); in [6] it was 25 µg/mL (≈ 65 µM). Moreover, the MIC is 0.78 µg/mL (≈ 2.03 µM) in assay [7]; 3.12 µg/mL (≈ 8.13 µM) in assay [8]; 0.78 µg/mL (≈ 2.03 µM) in assay [9]; 0.78 µg/mL (≈ 2.03 µM) in assay [13]; 3.12 µg/mL (≈ 8.13 µM) in [14]; 12.5 µg/mL (≈ 32.5 µM) in [15]. Besides, the MIC in assay [16] and in assay [17] was 0.78 µg/mL (≈ 2.03 µM) throughout. The IC50 in assay [10] is 1620 nM; in assay [11], 66700 nM; in assay [12], 350 nM.
Take `Fc1ccc(NC(=S)Nc2nnc(-c3ccc(Cl)cc3)s2)cc1`: the MIC in [18] came to 11 µM (≈ 4 µg/mL).
Regarding `Fc1ccc(NC(=S)Nc2nnc(-c3ccc(F)cc3)s2)cc1`, the MIC in assay [18] amounted to 10.9 µM (≈ 3.8 µg/mL).
On to `O=C(O)c1cn(C2CC2)c2cc(N3CCNCC3)c(F)cc2c1=O` [CIPROFLOXACIN], for which the minimum inhibitory concentration (MIC) was determined as 3.12 µg/mL (≈ 9.43 µM) in assay [1]; 3.12 µg/mL (≈ 9.43 µM) in assay [3]; 3.12 µg/mL (≈ 9.43 µM) in [4]; 1.56 µg/mL (≈ 4.71 µM) in assay [7]; 1.56 µg/mL (≈ 4.71 µM) in assay [8]; 1.56 µg/mL (≈ 4.71 µM) in [9].
Turning to `CC[C@@H](CO)NCCN[C@@H](CC)CO` [ETHAMBUTOL], the MIC in assay [18] is 11.5 µM (≈ 2.35 µg/mL).
On the same count and under the same terms, the result for `NNC(=O)c1ccncc1` [ISONIAZID] reads 17.8 µM (≈ 2.44 µg/mL).
With `Clc1ccc(COC(Cn2ccnc2)c2ccc(Cl)cc2Cl)c(Cl)c1` (configuration not stated) [MICONAZOLE], the minimum inhibitory concentration (MIC) in assay [13] turned out to be 1.56 µg/mL (≈ 3.75 µM); in assay [14] it was 1.56 µg/mL (≈ 3.75 µM); in assay [15], 3.12 µg/mL (≈ 7.51 µM); in assay [16], 3.12 µg/mL (≈ 7.51 µM); in [17], 3.12 µg/mL (≈ 7.51 µM).
With `NC(=O)N/N=C/c1ccc([N+](=O)[O-])o1` [NITROFURAZONE], the minimal inhibitory concentration (MIC) in assay [19], in assay [20], in [21] and in assay [22] was 6.25 µg/mL (≈ 31.5 µM) throughout.
On to `CN[C@H](CC(C)C)C(=O)N[C@H]1C(=O)N[C@@H](CC(N)=O)C(=O)N[C@H]2C(=O)N[C@H]3C(=O)N[C@H](C(=O)N[C@H](C(=O)O)c4cc(O)cc(O)c4-c4cc3ccc4O)[C@H](O)c3ccc(c(Cl)c3)Oc3cc2cc(c3O[C@@H]2O[C@H](CO)[C@@H](O)[C@H](O)[C@H]2O[C@H]2C[C@](C)(N)[C@H](O)[C@H](C)O2)Oc2ccc(cc2Cl)[C@H]1O` [VANCOMYCIN], for which the MIC in assay [1] came to 1.56 µg/mL (≈ 1.08 µM); in assay [2] it was 1.56 µg/mL (≈ 1.08 µM); in assay [3], 1.56 µg/mL (≈ 1.08 µM); in assay [4], 0.78 µg/mL (≈ 0.538 µM); in assay [5], 1.56 µg/mL (≈ 1.08 µM).
